Measured values reported in article PMC11050424, “Antibacterial and Hemolytic Activity of Antimicrobial Hydrogels Utilizing Immobilized Antimicrobial Peptides” (International Journal of Molecular Sciences, 2024).
Values after ≈ are worked out from the molar mass of the structure shown. Residues, ends and D or L forms follow the SMILES beside them.

Experiments:
[1] = system: P. aeruginosa (CCUG 56489); format: cell-based, Pseudomonas aeruginosa
Method: (§1) The minimum inhibitory concentration protocol was adapted from [42], with the main change in volume for easier observation. In short, the protocol was as follows: a single colony of Staphylococcus aureus (CCUG 10778) or Pseudomonas aeruginosa (CCUG 56489) was inoculated in 4 mL of TSB and cultivated at 37 °C until OD ~ 0.7 which corresponds to a concentration of roughly 10^9 CFU mL^−1. This was then diluted 1000 times to a concentration of roughly 10^6 CFU mL^−1 using Mueller Hinton broth (MH broth). In the meantime, the different peptides were weighed in separate 15 mL falcon tubes and dissolved in MH broth for a concentration of 512 µM. Serial dilution by a factor of 2 was then performed, with MH broth, in a 24-well plate, leaving 500 µL of solution in each well. Then, 500 µL of the bacterial solution was added to each well resulting in a starting concentration of 5 × 10^5 CFU mL^−1. […] The plates were cultivated overnight (16–18 h) and the minimum inhibitory concentration was determined for the lowest concentration where no visible growth was observed. Three separate experiments were performed for all peptides and bacteria.

[2] = system: S. aureus (CCUG 10778); format: cell-based, Staphylococcus aureus
Method: as §1

[3] = system: defibrinated horse blood; format: cell-based; details: red cells of horse, 1 h
Method: The use of hemolysis assays to study AMPs is a common implementation and quite standardized with small variations. Serial dilutions of the free AMPs were prepared in PBS to obtain 100 µL in Eppendorf tubes of the concentrations: 2, 4, 8, 16, 32, 64, 128, and 256 µM. A total of 100 µL of just PBS was added to an Eppendorf tube to serve as a negative control, and 100 µL of 0.2% Triton X-100 was added to an Eppendorf tube to serve as a positive control. The functionalized 8 mm Ø hydrogels as well as non-functionalized control hydrogels were placed in Eppendorf tubes together with 0.1, 0.2, 0.3 mL, or 0.4 mL PBS, two samples per type. For each volume, a set of negative control (PBS) and positive control (0.2% Triton X-100) was included using a matching volume. The blood used for the study was defibrinated horse blood from Thermo Fisher Scientific. The blood was placed in a 15 mL falcon tube and centrifuged at 4 °C for 10 min at 1000× g. The supernatant was discarded, and the erythrocytes were resuspended in 4 °C PBS and again centrifuged and the supernatant was removed. […]
The Eppendorf tubes were placed in an incubator at 37 °C for 1 h and the tubes were rotated 3 times every 15 min to limit sedimentation of the red blood cells. […] The absorbance was read at 540 nm using a Multiskan GO from Thermo Fisher Scientific. The rate of hemolysis was determined by Equation (2). […]

| MIC, P. aeruginosa [1] | MIC, S. aureus [2] | Structure (SMILES) | Hemolysis at 8–16 µM (observed MIC values against P. aeruginosa) [3]; 16 | Hemolysis at corresponding MIC values [3] |
| --- | --- | --- | --- | --- |
| 64 to 128 µM |  | NCCCC[C@H](NC(=O)[C@@H](N)CCCCN)C(=O)N1CCC[C@H]1C(=O)N[C@@H](CCCCN)C(=O)N1CCC[C@H]1C(=O)N[C@@H](CCCCN)C(=O)N1CCC[C@H]1C(=O)N[C@@H](CCCCN)C(=O)N1CCC[C@H]1C(=O)N[C@@H](Cc1c[nH]c2ccccc12)C(=O)N[C@@H](Cc1c[nH]c2ccccc12)C(=O)N[C@@H](Cc1c[nH]c2ccccc12)C(=O)N[C@@H](Cc1c[nH]c2ccccc12)C(N)=O [K9W4] (H-KKPKPKPKPWWWW-NH2) |  |  |
| 16 to 64 µM | 8 to 16 µM | N=C(N)NCCC[C@H](NC(=O)[C@@H]1CCCN1C(=O)[C@H](CCCNC(=N)N)NC(=O)[C@@H]1CCCN1C(=O)[C@H](CCCNC(=N)N)NC(=O)[C@@H]1CCCN1C(=O)[C@H](CCCCN)NC(=O)[C@@H](N)CCCCN)C(=O)N1CCC[C@H]1C(=O)N[C@@H](Cc1c[nH]c2ccccc12)C(=O)N[C@@H](Cc1c[nH]c2ccccc12)C(=O)N[C@@H](Cc1c[nH]c2ccccc12)C(=O)N[C@@H](Cc1c[nH]c2ccccc12)C(N)=O [KR9W4] (H-KKPRPRPRPWWWW-NH2) |  |  |
| 32 µM (≈ 56.9 µg/mL) | 4 to 8 µM | CC[C@H](C)[C@H](N)C(=O)N[C@@H](CC(C)C)C(=O)N[C@@H](CCCNC(=N)N)C(=O)N[C@@H](Cc1c[nH]c2ccccc12)C(=O)N1CCC[C@H]1C(=O)N[C@@H](Cc1c[nH]c2ccccc12)C(=O)N[C@@H](Cc1c[nH]c2ccccc12)C(=O)N1CCC[C@H]1C(=O)N[C@@H](Cc1c[nH]c2ccccc12)C(=O)N[C@@H](CCCNC(=N)N)C(=O)N[C@@H](CCCNC(=N)N)C(=O)N[C@@H](CCCCN)C(N)=O [Omiganan, reference compound] (H-ILRWPWWPWRRK-NH2) |  |  |
| 8 to 16 µM | 1 to 2 µM | CC[C@H](C)[C@H](NC(=O)CNC(=O)[C@H](CCCNC(=N)N)NC(=O)[C@H](Cc1ccccc1)NC(=O)[C@@H](NC(=O)[C@H](Cc1c[nH]cn1)NC(=O)[C@H](Cc1c[nH]cn1)NC(=O)[C@H](Cc1ccccc1)NC(=O)[C@@H](N)Cc1ccccc1)[C@@H](C)CC)C(=O)N[C@H](C(=O)N[C@@H](Cc1c[nH]cn1)C(=O)N[C@H](C(=O)NCC(=O)N[C@@H](CCCCN)C(=O)N[C@H](C(=O)N[C@H](C(=O)N[C@@H](Cc1c[nH]cn1)C(=O)N[C@@H](CCCNC(=N)N)C(=O)N[C@@H](CC(C)C)C(=O)N[C@H](C(=O)N[C@H](C(=O)NCC(N)=O)[C@@H](C)O)C(C)C)[C@@H](C)CC)[C@@H](C)O)C(C)C)C(C)C [Piscidin 1, reference compound] (H-FFHHIFRGIVHVGKTIHRLVTG-NH2) | 60–100% |  |
| 16 µM (≈ 30.9 µg/mL) | 8 µM (≈ 15.5 µg/mL) | N=C(N)NCCC[C@H](NC(=O)[C@@H](N)CCCNC(=N)N)C(=O)N1CCC[C@H]1C(=O)N[C@@H](CCCNC(=N)N)C(=O)N1CCC[C@H]1C(=O)N[C@@H](CCCNC(=N)N)C(=O)N1CCC[C@H]1C(=O)N[C@@H](CCCNC(=N)N)C(=O)N1CCC[C@H]1C(=O)N[C@@H](Cc1c[nH]c2ccccc12)C(=O)N[C@@H](Cc1c[nH]c2ccccc12)C(=O)N[C@@H](Cc1c[nH]c2ccccc12)C(=O)N[C@@H](Cc1c[nH]c2ccccc12)C(N)=O [R9W4] (H-RRPRPRPRPWWWW-NH2) |  | below 20% |

| Structure (SMILES) | MIC, P. aeruginosa [1] | MIC, S. aureus [2] | Hemolysis at 8–16 µM (observed MIC values against P. aeruginosa) [3]; 16 | Hemolysis at corresponding MIC values [3] |
| --- | --- | --- | --- | --- |
| N=C(N)NCCC[C@H](NC(=O)[C@@H](N)CCCNC(=N)N)C(=O)N1CCC[C@H]1C(=O)N[C@@H](CCCNC(=N)N)C(=O)N1CCC[C@H]1C(=O)N[C@@H](CCCNC(=N)N)C(=O)N1CCC[C@H]1C(=O)N[C@@H](CCCNC(=N)N)C(=O)N1CCC[C@H]1C(=O)N[C@@H](Cc1c[nH]c2ccccc12)C(=O)N[C@@H](Cc1c[nH]c2ccccc12)C(=O)N[C@@H](Cc1c[nH]c2ccccc12)C(=O)N[C@@H](Cc1c[nH]c2ccccc12)C(=O)N[C@@H](Cc1c[nH]c2ccccc12)C(N)=O [R9W5] (H-RRPRPRPRPWWWWW-NH2) | 32 to 64 µM | 16 µM (≈ 33.9 µg/mL) |  |  |
